Test: Phase I/II trials of intravenous Rigosertib in MDS patients: bone marrow blast response and overall survival
Method: According to one embodiment, Rigosertib was given as an intravenous infusion to MDS patients. In one trial, patients received 800 mg Rigosertib for three to five days every other week. According to another embodiment, patients received 650 to 1,700 mg Rigosertib for three to six days every other week. According to yet another embodiment, patients were initially treated with 800 mg to 1,500 mg Rigosertib for two days every week for three weeks followed by one week without treatment. The treatment schedule in these studies was later changed to 1,800 mg Rigosertib for three days every other week.
In this Example, bone marrow (BM) response and overall survival (OS) were analyzed in 60 patients (pts) with MDS, including 51 patients with refractory anemia and excess blasts (RAEB) and 9 patients with refractory cytopenia and multilineage dysplasia (RCMD) enrolled in 4 independent Phase 1/II clinical trials.
The patients were treated with Rigosertib administered as a continuous intravenous infusion (CIV) from 2 to 6 days weekly or every other week with BM response initially assessed per protocol by week 4 or 8 and every 8 weeks thereafter. Overall survival (OS) analyses were performed by the method of Kaplan-Meier.

[1] = 39 RAEB-1, 2, t-pts refractory or relapsing after azacitidine/decitabine
[2] = higher risk MDS patients who had previously failed Vidaza or Dacogen

## COc1cc(OC)c(/C=C/S(=O)(=O)Cc2ccc(OC)c(NCC(=O)[O-])c2)c(OC)c1.[Na+] [Rigosertib, sodium (E)-2-{2-methoxy-5-[(2′,4′,6′-trimethoxystyrylsulfonyl)methyl]phenylamino}acetate]
15 patients refractory/relapsing after hypomethylating agents, 3-day infusions 1800 mg/day every other week
  patients still alive at 49 weeks: 47%
[1]
  N patients with Progressive Disease: 3
  N patients with Stable BM Response: 14
  N patients with ≥50% Blast Decrease: 13
39 pts refractory/relapsing after azacitidine/decitabine, BM response Not Assessed
  Median OS: 11 weeks
39 pts refractory/relapsing after azacitidine/decitabine, Progressive Disease
  Median OS: 10 weeks
39 pts refractory/relapsing after azacitidine/decitabine, Stable BM Response
  Median OS: 40 weeks
39 pts refractory/relapsing after azacitidine/decitabine, ≥50% Blast Decrease
  Median OS: 44 weeks
51 RAEB-1, 2, t-pts
  N patients with Progressive Disease: 4
  N patients with Stable BM Response: 21
  N patients with ≥50% Blast Decrease: 16
51 RAEB-1, 2, t-pts, BM response Not Assessed
  Median OS: 11 weeks
51 RAEB-1, 2, t-pts, Progressive Disease
  Median OS: 13.5 weeks
51 RAEB-1, 2, t-pts, Stable BM Response
  Median OS: 36 weeks
51 RAEB-1, 2, t-pts, ≥50% Blast Decrease
  Median OS: 48 weeks
60 MDS patients, CIV
  patients with hematological improvements: Nine
CIV infusions, MDS patients
  tolerability of infusions: well tolerated without evidence of bone marrow myelotoxicity
Intermediate-1 risk MDS patients, previously failed azacitidine or decitabine
  median survival: about 77 weeks
Intermediate-2 risk MDS patients, previously failed azacitidine or decitabine
  median survival: about 37 weeks
MDS patients who had previously failed azacitidine or decitabine
  decrease in immature bone marrow cells: about 50%
MDS patients, intravenous infusion, in general
  decrease or stabilization in the number of immature bone marrow cells (blasts): ≥ 50%
RAEB-1, 17 of 60 MDS patients, CIV
  Median OS: 43 weeks
RAEB-2, 21 of 60 MDS patients, CIV
  Median OS: 37 weeks
RAEB-T, 13 of 60 MDS patients, CIV
  Median OS: 20 weeks
RCMD, 9 of 60 MDS patients, CIV
  Median OS: 98 weeks
[2]
  decrease or stabilization in the number of immature bone marrow cells: ≥ 50%
  median survival: about 36 weeks

Source: US10576050B2, “Methods and compositions for treatment of cancer” (ONCONOVA THERAPEUTICS, INC., priority 2012, dated 2020)
